Experimental data: ChEMBL document CHEMBL1152084 (Bioorg Med Chem Lett, 1997)

Key:
[1] = biological target: Platelet-derived growth factor receptor beta (Rattus norvegicus, UniProt Q05030); assay: Inhibition of PDGF-BB induced PDGF-B receptor autophosphorylation in rat mesangial cells.; format: functional, cell-based
[2] = biological target: Epidermal growth factor receptor (Homo sapiens, UniProt P00533); assay: Inhibition of epidermal growth factor receptor (EGF-R) autophosphorylation in A431 cells; format: functional, cell-based, A-431
Epidermal growth factor receptor, sequence (P00533 whole entry): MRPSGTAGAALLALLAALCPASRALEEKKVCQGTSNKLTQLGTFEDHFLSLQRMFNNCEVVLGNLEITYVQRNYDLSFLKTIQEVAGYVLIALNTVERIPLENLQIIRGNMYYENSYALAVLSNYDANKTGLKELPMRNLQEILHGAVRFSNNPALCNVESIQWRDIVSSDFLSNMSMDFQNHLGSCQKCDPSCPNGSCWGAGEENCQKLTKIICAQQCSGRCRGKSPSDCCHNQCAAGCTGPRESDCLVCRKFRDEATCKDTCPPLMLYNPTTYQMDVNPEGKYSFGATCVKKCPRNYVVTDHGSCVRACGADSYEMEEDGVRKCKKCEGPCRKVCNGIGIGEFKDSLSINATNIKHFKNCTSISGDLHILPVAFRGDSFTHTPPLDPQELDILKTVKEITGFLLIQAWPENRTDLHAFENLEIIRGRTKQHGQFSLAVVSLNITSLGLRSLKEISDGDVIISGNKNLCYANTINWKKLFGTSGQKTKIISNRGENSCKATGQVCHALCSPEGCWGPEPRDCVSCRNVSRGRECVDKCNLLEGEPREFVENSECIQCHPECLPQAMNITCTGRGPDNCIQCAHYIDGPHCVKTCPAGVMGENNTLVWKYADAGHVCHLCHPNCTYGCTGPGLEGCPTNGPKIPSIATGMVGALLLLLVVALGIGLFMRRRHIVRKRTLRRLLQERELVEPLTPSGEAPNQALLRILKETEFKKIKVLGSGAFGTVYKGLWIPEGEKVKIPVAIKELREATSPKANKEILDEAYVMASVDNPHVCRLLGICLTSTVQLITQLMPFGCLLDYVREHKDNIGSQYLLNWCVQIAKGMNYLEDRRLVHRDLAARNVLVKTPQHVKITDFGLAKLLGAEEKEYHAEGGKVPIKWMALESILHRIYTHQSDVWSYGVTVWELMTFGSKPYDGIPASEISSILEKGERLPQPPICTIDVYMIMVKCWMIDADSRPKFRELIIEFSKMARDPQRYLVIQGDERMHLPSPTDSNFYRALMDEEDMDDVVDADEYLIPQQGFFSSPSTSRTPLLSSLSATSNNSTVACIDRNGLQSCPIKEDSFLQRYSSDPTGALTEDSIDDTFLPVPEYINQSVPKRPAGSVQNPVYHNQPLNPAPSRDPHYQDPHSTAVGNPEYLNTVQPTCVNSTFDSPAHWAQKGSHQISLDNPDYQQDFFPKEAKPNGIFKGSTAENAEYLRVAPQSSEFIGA

[3] = biological target: Cyclin-dependent kinase 1 (Homo sapiens, UniProt P06493); assay: Inhibition of Cdc2
Cyclin-dependent kinase 1, sequence (P06493 whole entry): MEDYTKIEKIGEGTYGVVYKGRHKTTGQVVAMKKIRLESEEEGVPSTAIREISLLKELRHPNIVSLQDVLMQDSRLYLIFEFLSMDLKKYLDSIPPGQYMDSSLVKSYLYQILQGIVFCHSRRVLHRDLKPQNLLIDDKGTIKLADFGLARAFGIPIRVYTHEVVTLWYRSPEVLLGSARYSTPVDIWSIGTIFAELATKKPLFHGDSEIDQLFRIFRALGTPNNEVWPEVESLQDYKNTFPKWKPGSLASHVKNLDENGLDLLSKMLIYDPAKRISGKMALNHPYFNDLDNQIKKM

[4] = biological target: Proto-oncogene tyrosine-protein kinase Src (Homo sapiens, UniProt P12931); assay: Inhibition of c-SRC
Proto-oncogene tyrosine-protein kinase Src, sequence (P12931 2-536 limits assumed): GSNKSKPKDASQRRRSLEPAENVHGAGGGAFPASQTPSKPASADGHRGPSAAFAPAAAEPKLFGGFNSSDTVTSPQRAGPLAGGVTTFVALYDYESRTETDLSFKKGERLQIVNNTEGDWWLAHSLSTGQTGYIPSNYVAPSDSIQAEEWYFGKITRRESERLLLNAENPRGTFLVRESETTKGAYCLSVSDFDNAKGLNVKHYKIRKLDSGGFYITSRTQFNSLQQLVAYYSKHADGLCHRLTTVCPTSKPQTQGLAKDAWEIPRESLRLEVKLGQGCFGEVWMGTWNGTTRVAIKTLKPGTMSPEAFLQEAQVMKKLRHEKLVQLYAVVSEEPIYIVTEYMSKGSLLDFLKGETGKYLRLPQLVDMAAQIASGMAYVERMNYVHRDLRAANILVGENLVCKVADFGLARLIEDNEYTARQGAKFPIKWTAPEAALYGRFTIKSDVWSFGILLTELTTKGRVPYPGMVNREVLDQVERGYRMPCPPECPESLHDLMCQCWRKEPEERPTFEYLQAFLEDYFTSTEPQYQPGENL

[5] = biological target: cAMP-dependent protein kinase (PKA) (Homo sapiens, UniProt P22694+P17612+P22612); assay: Inhibition of Protein kinase A; format: protein assay
Protein kinase C (PKC) = assay: Inhibition of Protein kinase C; format: protein assay
[6] = biological target: Mitogen-activated protein kinase; ERK1/ERK2 (Homo sapiens, UniProt P27361+P28482); assay: Inhibition of Mitogen-activated protein kinase; format: protein assay

Platelet-derived growth factor receptor beta, sequence (Q05030 whole entry): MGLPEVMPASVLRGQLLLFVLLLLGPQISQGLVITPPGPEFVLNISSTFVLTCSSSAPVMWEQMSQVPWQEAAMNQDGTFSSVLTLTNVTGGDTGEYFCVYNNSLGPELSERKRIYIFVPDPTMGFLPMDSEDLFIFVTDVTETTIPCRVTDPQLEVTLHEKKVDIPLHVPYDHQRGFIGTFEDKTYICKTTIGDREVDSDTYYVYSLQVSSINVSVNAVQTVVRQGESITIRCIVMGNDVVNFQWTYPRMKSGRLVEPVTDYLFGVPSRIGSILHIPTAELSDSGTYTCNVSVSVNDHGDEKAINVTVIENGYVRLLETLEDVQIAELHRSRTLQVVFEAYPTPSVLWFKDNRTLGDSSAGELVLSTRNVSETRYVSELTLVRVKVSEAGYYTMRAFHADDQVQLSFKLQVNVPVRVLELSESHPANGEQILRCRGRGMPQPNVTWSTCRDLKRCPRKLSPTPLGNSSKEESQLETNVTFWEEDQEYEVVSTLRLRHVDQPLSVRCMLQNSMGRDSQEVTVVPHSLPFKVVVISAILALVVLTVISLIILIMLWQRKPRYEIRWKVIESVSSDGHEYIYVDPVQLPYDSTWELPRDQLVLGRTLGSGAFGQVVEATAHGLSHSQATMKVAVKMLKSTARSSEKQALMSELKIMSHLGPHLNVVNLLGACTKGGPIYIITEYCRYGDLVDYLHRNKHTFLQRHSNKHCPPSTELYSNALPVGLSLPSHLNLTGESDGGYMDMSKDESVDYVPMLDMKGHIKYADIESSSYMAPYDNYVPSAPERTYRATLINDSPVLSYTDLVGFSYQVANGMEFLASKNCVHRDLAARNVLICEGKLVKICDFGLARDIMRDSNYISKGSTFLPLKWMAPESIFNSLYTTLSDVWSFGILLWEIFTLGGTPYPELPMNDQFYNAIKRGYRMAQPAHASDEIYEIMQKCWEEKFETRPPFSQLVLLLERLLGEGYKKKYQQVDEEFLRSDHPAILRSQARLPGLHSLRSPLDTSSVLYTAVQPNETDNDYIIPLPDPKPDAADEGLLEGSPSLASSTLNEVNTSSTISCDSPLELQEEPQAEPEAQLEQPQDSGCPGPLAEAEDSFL

Row | IC50 [1] [µM] | Structure (SMILES) | also measured
1 | 0.76 | COc1cc2nccc(Oc3ccccc3)c2cc1OC | 
2 | 69.3 | COc1cc2nccc(Oc3c(OC)cccc3OC)c2cc1OC | 
3 | 14.8 | COc1cc2ncnc(Oc3cccc(Br)c3)c2cc1OC | IC50 [2]: 0.07 µM
4 | 4.4 | COc1cc2nccc(Oc3cccc(OC)c3OC)c2cc1OC | 
5 | 0.6 | COc1cc2nccc(Oc3ccccc3OC)c2cc1OC | 
6 | 8.4 | COc1cc2nccc(Oc3cccc(Br)c3)c2cc1OC | IC50 [2]: 2.5 µM
7 | 0.57 | COc1ccc(Oc2ncnc3cc(OC)c(OC)cc23)cc1OC | IC50 [2]: > 100 µM
8 | 12.9 | CCOc1cccc(Oc2ccnc3cc(OC)c(OC)cc23)c1 | 
9 | 1.7 | COc1cc2nccc(Oc3cccc(N)c3)c2cc1OC | 
10 | 0.56 | COc1cc2nccc(Oc3cccc(O)c3)c2cc1OC | 
11 | 5.5 | COc1cc(OC)cc(Oc2ccnc3cc(OC)c(OC)cc23)c1 | 
12 | 8.4 | CCc1cccc(Oc2ccnc3cc(OC)c(OC)cc23)c1 | 
13 | 2.6 | COc1ccc(Nc2ccnc3cc(OC)c(OC)cc23)cc1OC | IC50 [2]: 80.5 µM
14 | 1.9 | COc1ccc(Oc2ccnc3cc(OC)c(OC)cc23)cc1 | 
15 |  | COc1ccc(Oc2ccnc3cc(OC)c(OC)cc23)cc1OC | IC50 [3]: > 10 µM; IC50 [4]: > 10 µM; IC50 [5]: > 10 µM; IC50 (Protein kinase C (PKC)): > 20 µM; IC50 [6]: > 10 µM
16 | 4.5 | COc1ccc(Nc2ncnc3cc(OC)c(OC)cc23)cc1OC | IC50 [2]: 2.8 µM
17 | 21.5 | COc1cc2nccc(Nc3cccc(Br)c3)c2cc1OC | 
18 | 6.9 | COc1cc2nccc(Oc3cccc(C)c3)c2cc1OC | 
19 | 1.5 | COc1cc2nccc(Oc3cccc(F)c3)c2cc1OC | 
20 | 0.7 | COc1cc2nccc(Oc3cccc([N+](=O)[O-])c3)c2cc1OC | 
